Source: paper PMC11574021, “CEP192 localises mitotic Aurora-A activity by priming its interaction with TPX2” (The EMBO Journal, 2024)

System: LATS2-pS83 in U251 cells
Experiment: Immunofluorescence, LATS2-pS83 spindle pole signal intensity, U251
Assay type: cell-based, Homo sapiens
Conditions: for centrosomal LATS2-pS83 signal: U251, siRNA 48 h or Aurora-A inhibitor 30 min (250 nM), immunofluorescence
Procedure: As noted in the figures, the following drugs were incubated with cells for 30 min at 37 °C: Aurora-B-i ZM447439 2 µM [10 mM], PLK1-I BI2536 1 µM [10 mM] and Aurora-A-i MLN8237 [5 mM] was used at 250 and 500 nM in U251 and RPE1 cells, respectively. Drugs were resuspended in DMSO to the stock concentrations indicated in square brackets. BI2536 (HY-50698), MLN8237 (HY-10971) and ZM447439 (HY-10128) were all purchased from MedChemExpress. For western blotting, a 20-min pre-treatment with proteasome inhibitor (20 µM MG-132, MerckMillipore, 47490 [20 mM]) was required prior to the addition of DMSO control or kinase inhibitors. This prevented mitotic exit as a consequence of checkpoint override following Aurora-A and Aurora-B inhibitor addition.
siRNA depletion was carried out by reverse transfection using oligofectamine (Thermo Scientific, 12252011) and lipofectamine RNAiMax (Thermo Scientific, 13778075), according to the manufacturer’s instructions, for U251 and RPE1 cells, respectively. For immunofluorescence, 1 × 10^5 cells were seeded in six-well plates and simultaneously transfected with 60 pmol siRNA duplex and 3 µl transfection reagent diluted in 200 µl Opti-MEM serum-free medium. Growth medium was added to a final volume of 2 ml. For western blotting, 1 × 10^6 cells were seeded in 10 cm dishes and transfected with 300 pmol siRNA duplex and 15 µl transfection reagent diluted in 1000 µl Opti-MEM. Growth medium was added to a final volume of 10 ml. Cells were incubated with siRNA for 48 h prior to fixation or harvesting. As a negative control (siControl) Silencer select negative control No.1 siRNA was transfected as above. For TACC3 depletion, where two siRNA duplexes were used, 40 pmol of each was transfected per well.
For siRNA depletion, 1 × 10^5 cells were seeded in six-well plates and transfected as described above for 48 h prior to fixation. For all other experiments, 2.5 × 10^5 cells were seeded in six-well plates and grown for 24 h before fixation. All cells were grown on 12 mm diameter glass coverslips (VWR, 631–1577). Cells in Fig. EV4A were fixed using 4% (wt/v) paraformaldehyde (PFA) in PBS for 12 min, followed by 10 min quenching in 50 mM NH4Cl in PBS and 5 min of permeabilization with 0.2% (v/v) Triton X-100 in PBS, all at room temperature. For centriole staining in Fig. EV4E, cells were fixed in pre-chilled methanol for 10 min at −20 °C, incubated in PBS for 10 min and then 5 min in 0.5% Triton-X-100, 0.5% Tween, 0.05% SDS in PBS (v/v). To observe centromere and kinetochore staining in Fig. 7C and Appendix Fig. S8A, cells were fixed with PTEMF buffer (20 mM PIPES pH 6.8, 0.2% (v/v) Triton X-100, 10 mM EGTA, 1 mM MgCl2, 4% PFA (wt/v) in PBS) for 12 min at room temperature. […]

5′-CGGUAGUGAUAAAAGCUCAtt-3′ [siTPX2]
centrosomal LATS2-pS83 signal: reducing LATS2 phosphorylation

COc1cc(Nc2ncc3c(n2)-c2ccc(Cl)cc2C(c2c(F)cccc2OC)=NC3)ccc1C(=O)O [Alisertib]
reduction of p-LATS2 (pS83) intensity (U251, Aurora-A inhibition 30 min, authors' response to referees): > 80% | centrosomal LATS2-pS83 signal: obliterated

5′-CAAACAACUUGGAAAUCGAtt-3′ [siCEP192]
centrosomal LATS2-pS83 signal: reducing LATS2 phosphorylation
